Results: US20180244653A1, “SELECTIVE ALPHA-7 NICOTINIC RECEPTOR AGONISTS AND METHODS FOR MAKING AND USING THEM” (THE REGENTS OF THE UNIVERSITY OF CALIFORNIA, priority 2015, published 2018)
Entries after “also recorded” stand apart in the source; their conditions may differ.

Tests used:
Format in all cases: in vivo
[1] = system: scopolamine-induced amnesic mice; assay: Water maze test; conditions: i.p.; IND8 25 and 50 μmol/kg, QND8 25 μmol/kg
Procedure: The water maze test, a model for spatial learning and reference memory, related to function in the hippocampus, was also used as a study model in which mice locate a hidden platform after training session. Mice were trained to locate a hidden platform until a steady state measured by a shortened escape latency time was reached.
The average swimming time in a target quadrant where the platform had previously been placed was measured in the test day, day 8 (FIG. 25).
FIG. 25 illustrates the average swimming time in the target quadrant of water maze test. Data are presented in means±SE. IND8, QND8, PNU-282987, vehicle (15% Tween80, SH) and tacrine (TC) were injected 1 h and scopolamine (SC) 30 min before testing, respectively.
A black circular tank (diameter 70 cm; height 28 cm) was divided into 4 quadrants with a removable escape platform (6×7.5×14 cm) centered in a target quadrant. The tank was filled with water to 15 cm height and the platform was located 1 cm below the water surface.
Mice were trained from 5-7 days to get the steady state of escape latency. During day 1 to 5, each mouse was trained to swim from each quadrant with 1 min maximum time and allowed to stay on the platform for 10 sec. The mouse is placed on the platform for 10 s if it cannot find the hidden platform within 1 min. The escape latency time from each quadrant was measured. […] The probe test began when the escape latency time reached the steady state. The platform was removed and time spent in the target quadrant was measured. On the next day, all conditions were the same as probe test, but the platform was brought back to remind the mice of the target quadrant location. All mice were injected with test compounds 1 h and scopolamine 30 min before testing. The swimming time in the target quadrant was measured.

[2] = system: physiologically induced amnesia mice; assay: ORT with 24 h time delay (natural memory loss); conditions: i.p.; for Discrimination index / cognition enhancement, ORT time delay vs control group: 24 h delay; for Minimum effective dose, RT^§: physiologically induced amnesia (memory retention) model, ICR mice
Procedure: Both compounds were further evaluated on a physiologic amnesic model by using ORT with 24 h time delay to induce natural memory loss in mice. The appropriate time delay causing amnesia was initially selected by varying delay times (24, 48, and 72 h) between sample and test phase that have identical and different objects, respectively. […] Therefore, 24 h was used as the time delay between sample and test phase.
FIG. 27 illustrates exploration time to familiar (F) and novel (N) objects in test phase of ORT following a time delay. Each mouse was allowed to explore an open field apparatus for 5 min in a habituation phase one day before a sample phase. In the test day, vehicle (SH) and test compounds IND8, QND8 and PNU were injected 1 h before measurement of exploration time. Each mouse was allowed to explore 2 identical objects in the sample phase for 5 min. On the next day (24 h), one of the objects was changed to a new one and the mouse was allowed to explore these objects for 5 min. The exploration time of these objects was recorded. Data are presented as means±SE, n=6-8 mice/group. **p<0.01, ***p<0.001 vs exploration time of familiar object, paired student's t-test.
The DI was calculated and compared with the control group to evaluate IND8, QND8, and PNU-282987 enhancement of cognitive function. Data are shown in FIG. 28, which illustrates discrimination index (TN−TF/TN+TF) of each compound in the test phase of ORT with time delay protocol. There was a significant difference in DI (F6,43=6.097, p<0.001, n=6-8 mice/group). **p<0.01, ***p<0.001 vs vehicle group (SH), one-way ANOVA with Fisher's LSD post hoc comparison.
The apparatus used in this experiment was the same as ORT test. This experiment was divided into 2 parts directed to dose finding and establishing mechanism of action.
For dose finding protocol, the mice were randomly divided into different treatment groups, a control group receiving a vehicle and tested groups receiving PNU-282987 at 3, 10 mg/kg, and IND8, QND8 for 10, 25 μmol/kg, single dose. They were allowed to freely explore the open field apparatus for 5 min for habituation in a day before the experiment (day 1). On the test day (day 2), the test compound was injected 1 h before the sample phase. In this phase, mice were placed in the apparatus to explore two identical objects. On the next day (day 3), one object was changed to a new one and mice were allowed to explore these objects for 5 min in the test phase. For proving cognitive enhancement mediated through α7-nAChRs, the protocol was the same as mentioned above except MLA (3 mg/kg), selective α7-nAChR antagonist, was injected 5 min before test compounds in the sample phase (day 2) to block the cognitive enhancement effect from test compounds. The dose of test compounds is selected from the effective dose from the former experiment. The exploration time of each object was recorded if the nose of mouse came within 3 cm or touched the objects. The discrimination index (DI) was calculated by using (TN−TF)/(TN+TF); TN and TF represented exploration time of new and familiar objects, respectively.

[3] = system: scopolamine-induced amnesic mice; assay: Object recognition test (ORT); conditions: i.p.; for Discrimination index / episodic short-term memory, ORT vs scopolamine-treated group: tacrine 1 mg/kg, IND8, QND8 10 and 50 μmol/kg; for Minimum effective dose, ORT: scopolamine induced amnesia model, ICR mice
Procedure: FIG. 22 illustrates exploration time to familiar (F) and novel (N) objects of IND8 (A) and QND8 (B) in test phase of ORT. Each mouse was allowed to explore an open field apparatus for 5 min in a habituation phase. After a 24 h period, IND8, QND8, PNU-282987, vehicle (15% Tween80, SH) and tacrine (TC) were injected 1 h and scopolamine (SC) 30 min before sample phase, respectively. Each mouse explored 2 identical objects in the sample phase for 5 min and then placed in its cage for 10 min before the test phase began. In the 5 min of test phase, one of the objects was changed to a new one. The exploration time of these objects was recorded.
In both data sets, a discrimination index (DI) was calculated and used to evaluate the ability of mice to discriminate between familiar and novel objects. Data are represented in FIG. 23.
Amnesia was induced pharmacologically in mice via scopolamine injection (single dose) for 30 min prior to start the experiments. They were divided into vehicle group: receiving 15% tween 80 and 0.9% NSS, amnesia group: receiving scopolamine 1 mg/kg, standard positive control group receiving tacrine 1 mg/kg, and test group: receiving IND8, QND8 at dose 5, 10, 25, 50 μmol/kg, or PNU-282987 3, 10 mg/kg, single dose. All mice were acclimated in an experimental room at least 30 min before the experiments.
The apparatus was made of black polyvinyl chloride (52×52×40 cm). The objects used in this experiment had different visual shapes and colors to be discriminated. They were placed 10 cm from the side wall in the balanced manner. The box area and objects were cleaned with 70% ethanol between each experiment to remove odor cues.
The mice were randomly divided into different treatment groups. They were allowed to freely explore the open field apparatus for 5 min for habituation in the day prior to the experiments to get familiar with the apparatus. On the experimental day, test compounds injected 1 h, whereas scopolamine administered 30 min before the sample phase (acquisition trial). The mice were placed in the apparatus to explore 2 identical objects. After 10 min of acclimation in their cages, one object was changed to a new one, and mice were allowed to explore these objects for 5 min in the test phase (retention trial). The exploration time of each object was recorded if the nose of mice approached the objects within 3 cm or touched the objects. The discrimination index (DI) was calculated by using (TN−TF)/(TN+TF); TN and TF represented exploration time of new and familiar objects, respectively.

Compound | Time in target quadrant, water maze vs scopolamine-treated group [1] | Discrimination index / cognition enhancement, ORT time delay vs control group [2] | Minimum effective dose, RT^§ [2] [µmol/kg] | Discrimination index / episodic short-term memory, ORT vs scopolamine-treated group [3] | Minimum effective dose, ORT [3] [µmol/kg]
c1cc2cc(-c3cn(C4CN5CCC4CC5)nn3)ccc2[nH]1 (stereo not drawn) [IND8, 5-((Quinuclid-3-yl)-1H-1,2,3-triazol-4-yl)-1H-indole] | significantly spent more time than amnesia group | able to enhance cognition; also recorded: significantly higher than that of control group | 10 | significantly improved episodic short-term memory | 10
O=C(N[C@H]1CN2CCC1CC2)c1ccc(Cl)cc1 [PNU-282987, reference compound] |  | able to enhance cognition; also recorded: significantly higher than that of control group | 10 |  | 
Oc1ccc(-c2cn(C3CN4CCC3CC4)nn2)cc1 (stereo not drawn) [QND8, 3-(4-hydroxyphenyl-1,2,3-triazol-1-yl) quinuclidine] | significantly spent more time than amnesia group | able to enhance cognition; also recorded: significantly higher than that of control group | 10 | significantly improved episodic short-term memory | 10
